Results taken from the supplement of paper PMC10307832.

How the values were obtained:
Assay in all cases: relative viability (nuclei count vs DMSO), 5 days (fraction); higher = more cells survive
Olaparib + Lapatinib = compound: O=C(c1cc(Cc2n[nH]c(=O)c3ccccc23)ccc1F)N1CCN(C(=O)C2CC2)CC1 [Olaparib] + CS(=O)(=O)CCNCc1ccc(-c2ccc3ncnc(Nc4ccc(OCc5cccc(F)c5)c(Cl)c4)c3c2)o1 [Lapatinib] (partner 2 µM)
Summary of the method: (§1)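 The day after seeding in 1536-well plates, lung cancer cell lines were treated by pin tool with a single drug, or with a fixed anchor-drug dose together with five library-drug doses (not always all listed) in √10 steps. After 5 days, a combined fix-and-stain solution (final 0.05% Triton X-100, 1% formaldehyde, 1 ug/ml Hoechst) was added. Nuclei counted on 4× images gave relative viability as treated counts over vehicle counts, reported as the median of duplicate plates.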

Carfilzomib + Luminespib = compound: CC(C)C[C@H](NC(=O)[C@H](CCc1ccccc1)NC(=O)CN1CCOCC1)C(=O)N[C@@H](Cc1ccccc1)C(=O)N[C@@H](CC(C)C)C(=O)[C@@]1(C)CO1 [Carfilzomib] + CCNC(=O)c1noc(-c2cc(C(C)C)c(O)cc2O)c1-c1ccc(CN2CCOCC2)cc1 [Luminespib] (partner 0.01 µM)
Summary of the method: as §1

Crizotinib + Tozasertib = compound: C[C@@H](Oc1cc(-c2cnn(C3CCNCC3)c2)cnc1N)c1c(Cl)ccc(F)c1Cl [Crizotinib] + Cc1cc(Nc2cc(N3CCN(C)CC3)nc(Sc3ccc(NC(=O)C4CC4)cc3)n2)n[nH]1 [Tozasertib] (partner 0.1 µM)
Summary of the method: as §1

Olaparib + Trametinib = compound: O=C(c1cc(Cc2n[nH]c(=O)c3ccccc23)ccc1F)N1CCN(C(=O)C2CC2)CC1 [Olaparib] + CC(=O)Nc1cccc(-n2c(=O)n(C3CC3)c(=O)c3c(Nc4ccc(I)cc4F)n(C)c(=O)c(C)c32)c1 [Trametinib] (partner 0.02 µM)
Summary of the method: as §1

Cell Line	relative viability (Olaparib + Lapatinib; first compound 0.08 µM)	relative viability (Olaparib + Lapatinib; first compound 0.253 µM)	relative viability (Olaparib + Lapatinib; first compound 2.53 µM)	relative viability (Olaparib + Lapatinib; first compound 8 µM)	relative viability (Carfilzomib + Luminespib; first compound 0.001 µM)	relative viability (Carfilzomib + Luminespib; first compound 0.003162 µM)	relative viability (Carfilzomib + Luminespib; first compound 0.01 µM)	relative viability (Carfilzomib + Luminespib; first compound 0.03162 µM)	relative viability (Carfilzomib + Luminespib; first compound 0.1 µM)	relative viability (Crizotinib + Tozasertib; first compound 0.01 µM)	relative viability (Crizotinib + Tozasertib; first compound 0.03162 µM)	relative viability (Crizotinib + Tozasertib; first compound 0.1 µM)	relative viability (Crizotinib + Tozasertib; first compound 0.3162 µM)	relative viability (Crizotinib + Tozasertib; first compound 1 µM)	relative viability (Olaparib + Trametinib; first compound 0.08 µM)	relative viability (Olaparib + Trametinib; first compound 0.253 µM)	relative viability (Olaparib + Trametinib; first compound 2.53 µM)	relative viability (Olaparib + Trametinib; first compound 8 µM)
201T	1.06	0.973	0.939	1	0.999	1.15	1.07	1.02	0.915	0.924	0.947	0.921	0.927	0.978	0.682	0.695	0.726	0.668
A549	1.21	0.833	0.983	0.666	–	–	–	–	–	–	–	–	–	–	–	–	–	–
A-427	1.13	0.931	0.879	1.02	0.837	1.18	1.05	0.141	0.112	0.17	0.199	0.215	–	0.212	0.782	0.741	0.719	0.601
ABC-1	1.01	1.07	1.02	1.25	0.581	1.35	0.246	0.193	0.141	–	0.196	0.16	0.177	0.186	–	–	–	–
BEN	0.636	0.515	0.784	0.712	0.287	0.528	0.258	0.248	0.175	0.452	0.55	0.53	0.414	0.446	1.11	0.991	1.07	1.1
CAL-12T	0.94	0.643	0.631	0.664	0.486	0.29	0.478	0.16	0.141	0.331	0.254	0.384	–	0.3	0.351	0.292	0.417	0.305
COR-L23	1.26	0.815	0.739	0.438	0.665	0.681	0.557	0.0931	0.0743	0.21	0.191	0.22	0.195	0.194	0.661	0.642	0.498	0.451
COR-L 105	0.341	0.348	0.363	0.317	0.721	0.737	0.788	0.503	0.236	0.331	0.361	0.367	0.326	0.344	0.472	0.446	0.425	0.428
Calu-6	1.23	0.995	0.893	0.724	–	–	–	–	–	–	–	–	–	–	–	–	–	–
ChaGo-K-1	–	–	–	–	0.581	0.747	0.587	0.523	0.171	0.24	0.222	0.222	0.209	0.246	0.949	0.792	0.819	0.735
EBC-1	0.247	0.235	0.236	0.201	–	–	–	–	–	–	–	–	–	–	–	–	–	–
EKVX	0.228	0.162	0.209	0.213	0.887	0.907	0.886	0.788	0.39	0.392	0.398	0.426	0.349	0.405	0.425	0.427	0.313	0.362
EMC-BAC-2	0.921	0.88	0.852	0.758	1.13	1.24	1.26	1.16	0.225	0.326	0.281	0.304	0.285	0.275	0.971	0.844	0.932	0.806
EPLC-272H	1.16	0.848	1.08	1.01	0.266	0.694	0.269	0.151	0.101	0.204	0.26	0.385	0.232	0.306	0.363	0.272	0.306	0.287
H3255	0.229	0.245	0.256	0.219	0.847	0.904	0.797	0.656	0.143	0.71	0.637	0.791	0.599	0.655	0.652	0.633	0.583	0.567
HARA	0.836	0.725	0.699	0.763	0.871	0.576	0.615	0.051	0.0562	0.106	0.079	0.1	–	0.116	0.882	0.66	0.732	0.632
HCC-15	0.999	0.752	0.808	0.765	0.306	0.344	0.299	0.268	0.0676	0.408	0.377	0.389	–	0.339	0.422	0.387	0.39	0.353
HCC-44	1.02	0.946	1.11	1.05	1.01	1.15	0.955	0.471	0.212	0.936	–	0.992	0.836	1.01	1.04	0.949	1.01	0.996
HCC-78	0.853	0.522	1.01	0.666	–	–	–	–	–	–	0.47	0.419	0.391	0.442	0.861	0.647	0.716	0.707
HCC-366	1.06	0.884	0.77	0.417	–	–	–	–	–	0.143	0.0981	0.106	–	0.136	0.311	0.311	0.268	0.214
HCC-827	0.239	0.202	0.194	0.176	0.344	0.635	0.625	0.721	0.281	0.427	0.438	0.414	0.413	0.415	0.52	0.508	0.498	0.478
HOP-62	1.22	1.08	0.741	0.538	0.986	0.91	0.849	0.784	0.0941	0.396	0.33	0.354	0.322	0.383	0.358	0.359	0.393	0.333

Cell Line	relative viability (Olaparib + Lapatinib; first compound 0.08 µM)	relative viability (Olaparib + Lapatinib; first compound 0.253 µM)	relative viability (Olaparib + Lapatinib; first compound 2.53 µM)	relative viability (Olaparib + Lapatinib; first compound 8 µM)	relative viability (Carfilzomib + Luminespib; first compound 0.001 µM)	relative viability (Carfilzomib + Luminespib; first compound 0.003162 µM)	relative viability (Carfilzomib + Luminespib; first compound 0.01 µM)	relative viability (Carfilzomib + Luminespib; first compound 0.03162 µM)	relative viability (Carfilzomib + Luminespib; first compound 0.1 µM)	relative viability (Crizotinib + Tozasertib; first compound 0.01 µM)	relative viability (Crizotinib + Tozasertib; first compound 0.03162 µM)	relative viability (Crizotinib + Tozasertib; first compound 0.1 µM)	relative viability (Crizotinib + Tozasertib; first compound 0.3162 µM)	relative viability (Crizotinib + Tozasertib; first compound 1 µM)	relative viability (Olaparib + Trametinib; first compound 0.08 µM)	relative viability (Olaparib + Trametinib; first compound 0.253 µM)	relative viability (Olaparib + Trametinib; first compound 2.53 µM)	relative viability (Olaparib + Trametinib; first compound 8 µM)
IA-LM	1.13	0.926	0.746	0.602	–	–	–	–	–	–	–	–	–	–	–	–	–	–
LC-2-ad	1.08	0.89	0.905	0.597	0.974	1.19	1.12	0.593	0.265	0.425	0.454	0.431	0.423	0.47	0.877	0.819	0.894	0.809
LCLC-97TM1	1.21	0.947	0.565	0.438	0.743	0.858	0.753	0.27	0.14	0.19	0.234	0.21	0.201	0.224	0.237	0.165	0.215	0.203
LCLC-103H	–	–	–	–	0.849	0.975	0.943	1.04	0.176	0.37	0.39	0.488	0.451	0.578	0.669	0.689	0.679	0.652
LK-2	0.985	0.935	0.92	0.941	0.221	0.203	0.175	0.17	0.168	0.173	0.177	0.197	–	0.19	0.887	0.701	0.888	0.788
LOU-NH91	0.83	0.77	0.733	0.735	0.344	0.475	0.344	0.287	0.289	0.674	0.69	0.751	0.606	0.677	0.862	0.782	0.793	0.825
LU99A	1.01	0.839	0.643	0.49	0.252	0.221	0.284	0.218	0.191	0.231	0.27	0.256	0.222	0.241	0.525	0.535	0.473	0.466
LXF-289	0.929	0.871	0.97	0.973	0.654	0.761	0.552	0.515	0.0761	0.221	0.201	0.18	0.157	0.197	0.737	0.674	0.771	0.847
NCI-H23	1.32	0.791	0.679	0.485	0.211	0.201	0.201	0.188	0.184	0.414	0.36	0.307	–	0.363	0.402	0.439	0.385	0.368
NCI-H322M	0.576	0.597	0.599	0.491	0.719	0.951	0.849	0.713	0.291	0.482	0.515	0.48	0.49	0.459	0.496	0.57	0.577	0.523
NCI-H358	0.388	0.434	0.44	0.426	0.295	0.456	0.378	0.281	0.118	0.0979	0.105	0.118	0.0922	0.0946	0.13	0.147	0.145	0.12
NCI-H441	–	–	–	–	0.303	0.308	0.318	0.208	0.173	0.527	0.609	0.536	–	0.837	0.548	0.442	0.382	0.447
NCI-H460	1.28	0.874	0.679	0.172	0.0383	0.0252	0.0369	0.0311	0.0158	0.368	0.441	0.474	0.248	0.455	0.115	0.0823	0.121	0.0533
NCI-H522	–	–	–	–	1.09	1.57	1.16	1.26	0.367	0.509	0.492	0.503	0.596	0.471	0.679	0.733	0.711	0.715
NCI-H1299	1.01	0.927	0.949	0.963	–	–	–	–	–	–	–	–	–	–	–	–	–	–
NCI-H1563	0.975	0.999	0.992	0.92	0.538	0.455	0.512	0.457	0.466	–	–	–	–	–	–	–	–	–
NCI-H1623	–	–	–	–	0.466	0.527	0.563	0.59	0.345	0.355	0.399	0.415	0.395	0.43	–	–	–	–
NCI-H1648	–	–	–	–	–	–	–	–	–	0.548	0.599	–	0.497	0.47	0.455	0.513	–	0.418
NCI-H1703	1.63	1.03	1.29	1.04	–	–	–	–	–	–	–	–	–	–	–	–	–	–
NCI-H1792	0.895	0.738	0.82	0.779	0.425	0.423	0.482	0.456	0.356	–	–	–	–	–	0.461	0.448	0.382	0.398
NCI-H2342	–	–	–	–	0.69	1.01	0.794	0.798	0.581	0.489	0.492	0.584	0.524	0.485	0.8	0.871	0.802	0.742
SW 900	–	–	–	–	0.164	0.196	0.213	0.172	0.149	0.657	0.541	0.512	0.52	0.613	0.867	0.758	0.85	0.815
